Measurements as given in article PMC6100075, “Correlation between the Potency of Flavonoids on Mushroom Tyrosinase Inhibitory Activity and Melanin Synthesis in Melanocytes” (Molecules : A Journal of Synthetic Chemistry and Natural …, 2018).
Where two headings read alike, the source gives them in different places.

What was measured:
tyrosinase = test system: tyrosinase; design: method as in PMID 17295516; conditions: cited from earlier work
mushroom tyrosinase [1] = conditions: cited from earlier work
mushroom tyrosinase [2] = target: mushroom tyrosinase (Agaricus bisporus, UniProt C7FF04); experiment: Mushroom tyrosinase inhibitory assay (o-diphenolase activity, L-DOPA as substrate); type: biochemical; conditions: for inhibition at 200 µM: read-out: Mushroom Tyrosinase Inhibition % Inhibition (at 200 μM);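 on all read-outs here: enzyme and test sample preincubated 10 min at 25 °C in pH 6.8 phosphate buffer, 50% DMSO vehicle as control, enzyme-free mixture as blank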
murine tyrosinase = target: T1, murine tyrosinase (Mus musculus, UniProt P11344); experiment: Murine tyrosinase inhibitory assay (o-diphenolase activity, crude enzyme from B16-F10 melanoma cells); type: biochemical; conditions: 200 μM, L-DOPA substrate;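 further: crude tyrosinase taken from lysed, dialyzed B16-F10 cell extract, with the inhibition reaction incubated for 2 h at 37 °C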
T1 construct: The cells were lysed by vortex and incubated at 4 °C for 1 h to solubilize the tyrosinase enzyme; endogenous in cells; host or cells: B16-F10 melanoma cells (Triton X-100 lysate, dialyzed)
T1 sequence (P11344 19-533): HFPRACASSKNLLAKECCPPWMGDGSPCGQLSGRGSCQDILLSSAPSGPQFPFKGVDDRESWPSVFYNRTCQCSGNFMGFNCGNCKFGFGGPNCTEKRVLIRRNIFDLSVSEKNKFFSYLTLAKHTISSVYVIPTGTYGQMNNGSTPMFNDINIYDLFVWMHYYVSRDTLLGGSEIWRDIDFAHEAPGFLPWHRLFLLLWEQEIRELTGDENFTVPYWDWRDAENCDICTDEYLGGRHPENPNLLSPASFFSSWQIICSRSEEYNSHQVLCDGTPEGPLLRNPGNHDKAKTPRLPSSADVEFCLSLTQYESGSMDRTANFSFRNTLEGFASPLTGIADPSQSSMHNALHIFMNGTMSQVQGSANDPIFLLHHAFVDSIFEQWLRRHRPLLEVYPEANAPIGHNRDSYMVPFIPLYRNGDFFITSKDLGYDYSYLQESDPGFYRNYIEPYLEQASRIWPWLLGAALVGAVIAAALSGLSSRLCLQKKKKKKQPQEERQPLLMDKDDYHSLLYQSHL

B16-F10 melanoma cells [3] = experiment: Total melanin content assay; type: cell-based, Mus musculus (mouse); conditions: for activity at 15 µM / activity at 30 µM: B16-F10, read-out: % Melanin Content; for activity at 15 µM / activity at 30 µM / % Melanin Content: 72 h, relative to control
Protocol: Mus musculus (mouse) melanoma cell line, B16-F10 (ATCC® Number: CRL-6475™, Manassas, VA, USA), was cultured in complete Dulbecco′s Modified Eagle′s Medium (DMEM, phenol red-free medium) containing 10% fetal bovine serum, 25 mM glucose, 4 mM L-glutamine, 1 mM sodium pyruvate, 10 μg/mL penicillin, and 10 μg/mL streptomycin, at 37 °C, with 5% carbon dioxide (CO2) in a humidified atmosphere.
The total melanin content, produced both extracellularly and intracellularly, was determined as follows: B16-F10 cells were seeded onto a 24-well plate at a concentration of 50,000 cells/0.5 mL/well and were incubated for 24 h, followed by treatment with either the test compounds or the control (0.5% DMSO), and then incubated for 72 h. For extraction, the total produced melanin and 0.5 mL of 2 N NaOH containing 20% DMSO were added directly to the cell culture medium, mixed by pipetting and then incubated at room temperature for 1 h. The lysed cell extract was centrifuged at 13,000× g for 5 min. Finally, the supernatant was transferred to a 96-well plate and the relative melanin content was detected at 405 nm using a micro plate reader. Kojic acid and oxyresveratrol were used as positive controls.

[4] = Cell viability assay (PrestoBlue resazurin); type: cell-based, Mus musculus (mouse); conditions: mouse, 72 h, relative to control, read-out: % Cell Viability;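 further: mouse B16-F10 melanoma cells exposed to test samples for 72 h, with viability read as fluorescence of resorufin formed when living cells reduce PrestoBlue resazurin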
[5] = test system: murine melan-a melanocytes; design: method as in PMID 19182387; conditions: cited from earlier work
[6] = test system: human melanoma cells (MMV II); design: method as in PMID 25248426; conditions: cited from earlier work
B16-F10 melanoma cells [7] = experiment: Cell viability assay (PrestoBlue resazurin); type: cell-based, Mus musculus (mouse);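 further: mouse B16-F10 melanoma cells exposed to test samples for 72 h, with viability read as fluorescence of resorufin formed when living cells reduce PrestoBlue resazurin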
[8] = test system: murine B16-F10 melanoma cells; design: method as in PMID 17873839, PMID 14717847, PMID 16794334, PMID 26656314; conditions: cited from earlier work
[9] = read-out: monophenolase activity of mushroom tyrosinase IC50
[10] = read-out: Murine Tyrosinase Inhibition, % (at 200 μM)
[11] = 30 μM, 72 h, relative to control

Chain of mushroom tyrosinase (Agaricus bisporus, UniProt C7FF04) (G1K3P4 entry or part of it): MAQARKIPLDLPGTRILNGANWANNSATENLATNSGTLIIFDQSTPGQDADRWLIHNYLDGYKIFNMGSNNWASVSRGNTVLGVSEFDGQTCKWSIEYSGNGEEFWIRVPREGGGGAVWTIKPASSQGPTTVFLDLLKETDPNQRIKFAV
Chain of mushroom tyrosinase (Agaricus bisporus, UniProt C7FF04) (C7FF04 2-392): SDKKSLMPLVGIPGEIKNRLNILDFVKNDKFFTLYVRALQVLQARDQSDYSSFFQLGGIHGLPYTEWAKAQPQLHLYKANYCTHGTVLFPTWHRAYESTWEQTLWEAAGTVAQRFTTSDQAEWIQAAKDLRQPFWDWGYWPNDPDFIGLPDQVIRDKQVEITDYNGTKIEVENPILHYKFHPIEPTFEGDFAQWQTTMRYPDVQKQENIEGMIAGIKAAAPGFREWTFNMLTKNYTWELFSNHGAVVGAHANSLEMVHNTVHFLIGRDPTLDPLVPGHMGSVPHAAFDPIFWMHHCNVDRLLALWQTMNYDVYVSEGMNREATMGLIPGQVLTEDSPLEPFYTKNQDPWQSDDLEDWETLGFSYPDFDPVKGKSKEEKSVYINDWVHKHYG

O=c1c(-c2ccc(O)cc2)coc2c(O)c(O)cc(O)c12 [5,7,8,4′-tetrahydroxyisoflavone]
inhibition of monophenolase and diphenolase activities of tyrosinase (in words) (tyrosinase): irreversibly inhibit

O=c1c(-c2ccc(O)cc2)coc2cc(O)c(O)cc12 [6,7,4′-trihydroxyisoflavone]
IC50 (mushroom tyrosinase [1]; [9]): 9.2 µM

O=c1c(-c2ccc(O)cc2)coc2c(O)c(O)ccc12 [7,8,4′-trihydroxyisoflavone]
inhibition of monophenolase and diphenolase activities of tyrosinase (in words) (tyrosinase): irreversibly inhibit

COc1ccc(-c2coc3cc(O)ccc3c2=O)cc1O [Compound 2, Calycosin]
inhibitory activity on mushroom tyrosinase (in words) (mushroom tyrosinase [2]; o-diphenolase, L-DOPA substrate): did not show inhibitory activity | inhibition at 300 µM (mushroom tyrosinase [2]; read-out: Mushroom Tyrosinase Inhibition % Inhibition (at 300 μM)): 0% | inhibition at 200 µM (murine tyrosinase; read-out: Murine Tyrosinase Inhibition, % (at 200 μM), symbol): < 0% | activity at 15 µM (B16-F10 melanoma cells [3]; Mus musculus, 15 μM): 143 ± 8.2% | activity at 30 µM (B16-F10 melanoma cells [3]; Mus musculus, 30 μM): 197 ± 6.4% | viability at 72 h, 15 µM ([4]; B16-F10 melanoma cells): 99.1 ± 9.2% | viability at 72 h, 30 µM ([4]; B16-F10 melanoma cells): 101 ± 1.9% | IC50 (mushroom tyrosinase [1]; read-out: monophenolase inhibition of mushroom tyrosinase IC50): 38.4 µM | effect on melanin biosynthesis (in words) [5]: reduced melanin biosynthesis

O=c1c(-c2ccc(O)cc2)coc2cc(O)cc(O)c12 [Compound 4, Genistein]
behaviour as substrate of mushroom tyrosinase (in words) (mushroom tyrosinase [2]; pre-incubation with enzyme in absence of L-DOPA, coloured product at 475 nm): chromogenic substrate analogs | inhibition at 200 µM (murine tyrosinase; [10]): 9.9 ± 3.1% | effect on melanin content (in words, Figure 1) (B16-F10 melanoma cells [3]; 30 μM): increased the melanin content | activity at 15 µM (B16-F10 melanoma cells [3]; Mus musculus, 15 μM): 165.1 ± 1.6% | activity at 30 µM (B16-F10 melanoma cells [3]; Mus musculus, 30 μM): 192 ± 13.9% | viability at 72 h, 15 µM [4]: 128 ± 3.5% | viability at 72 h, 30 µM [4]: 93.8 ± 5.7% | IC50 (mushroom tyrosinase [1]; [9]): 822 µM | effect on melanogenesis (in words) [6]: melanogenesis-promoting actions

COc1cc(O)c(-c2coc3cc(O)cc(O)c3c2=O)cc1O [Compound 5, Khrinone B]
inhibition at 200 µM (mushroom tyrosinase [2]; 200 μM, L-DOPA substrate): 72.7 ± 2.2% | inhibition at 200 µM (murine tyrosinase; [10]): 10.1 ± 3% | activity at 15 µM (B16-F10 melanoma cells [3]; Mus musculus, 15 μM): 84.1 ± 5.3% | activity at 30 µM (B16-F10 melanoma cells [3]; Mus musculus, 30 μM): 34.7 ± 12.3% | viability at 72 h, 15 µM ([4]; B16-F10 melanoma cells): 95.1 ± 5.4% | viability at 72 h, 30 µM ([4]; B16-F10 melanoma cells): 60% | % Cell Viability (B16-F10 melanoma cells [7]; [11]): 62.3 ± 15.1%

COc1ccc([C@H]2COc3cc(O)ccc3C2=O)c(OC)c1 [Compound 14, (3S)-Sativanone]
inhibition at 500 µM (mushroom tyrosinase [2]; 500 μM, L-DOPA substrate): 13% | inhibition at 200 µM (murine tyrosinase; [10]): 9.5 ± 1.6% | activity at 15 µM (B16-F10 melanoma cells [3]; Mus musculus, 15 μM): 124 ± 4.3% | activity at 30 µM (B16-F10 melanoma cells [3]; Mus musculus, 30 μM): 128 ± 6% | viability at 72 h, 15 µM ([4]; B16-F10 melanoma cells): 107 ± 10.6% | viability at 72 h, 30 µM ([4]; B16-F10 melanoma cells): 60% | % Cell Viability (B16-F10 melanoma cells [7]; [11]): 64.3 ± 23.7%

COc1ccc(C2COc3c(ccc(O)c3OC)C2)c(O)c1O [Compound 21, (3R,S)-3′-Hydroxy-8-methoxy vestitol]
inhibition at 200 µM (mushroom tyrosinase [2]; 200 μM, L-DOPA substrate): 64.1 ± 1.3% | inhibition at 200 µM (murine tyrosinase; [10]): 11.4 ± 2.5% | activity at 15 µM (B16-F10 melanoma cells [3]; Mus musculus, 15 μM): 97 ± 6.3% | activity at 30 µM (B16-F10 melanoma cells [3]; Mus musculus, 30 μM): 36.3 ± 0.1% | viability at 72 h, 15 µM ([4]; B16-F10 melanoma cells): 102.9 ± 1% | viability at 72 h, 30 µM ([4]; B16-F10 melanoma cells): 60% | % Cell Viability (B16-F10 melanoma cells [7]; [11]): 62.4 ± 3.2%

COc1cc2c(cc1O)[C@@H]1COc3cc(O)ccc3[C@@H]1O2 [Compound 27, (6aR,11aR)-3,8-Dihydroxy-9-methoxy pterocarpan]
inhibition at 200 µM (mushroom tyrosinase [2]; 200 μM, L-DOPA substrate): 84.6 ± 0.6% | inhibition at 200 µM (murine tyrosinase; [10]): 29.2 ± 2.9% | effect on melanin content (in words, Figure 1) (B16-F10 melanoma cells [3]; 30 μM): inhibitory effect of melanogenesis | inhibition at 15 µM (B16-F10 melanoma cells [3]; Mus musculus, B16-F10, 15 μM, read-out: inhibition of melanogenesis): 59% | activity at 15 µM (B16-F10 melanoma cells [3]; Mus musculus, 15 μM): 41.9 ± 0.4% | activity at 30 µM (B16-F10 melanoma cells [3]; Mus musculus, 30 μM): 53.5 ± 0.4% | viability at 72 h, 15 µM ([4]; B16-F10 melanoma cells): 106 ± 4.9% | viability at 72 h, 30 µM ([4]; B16-F10 melanoma cells): 14% | toxicity to B16-F10 cells (in words) (B16-F10 melanoma cells [7]; 15 μM): no toxicity | % Cell Viability (B16-F10 melanoma cells [7]; [11]): 14.5 ± 0.9%

O=c1cc(-c2ccccc2)oc2cc(O)cc(O)c12 [chrysin]
effect on melanogenesis (in words) [6]: melanogenesis-promoting actions

O=c1c(-c2ccc(O)cc2)coc2cc(O)ccc12 [daidzein, 7,4′-dihydroxyisoflavone]
IC50 (mushroom tyrosinase [1]; [9]): 264 µM

O=c1c(O)c(-c2ccc(O)c(O)c2)oc2cc(O)ccc12 [fisetin]
effect on melanogenesis (in words) [6]: melanogenesis-promoting actions

COc1cc2c(=O)c(-c3ccc(O)cc3)coc2cc1O [glycitein, 6-methoxy-7,4′-dihydroxyisoflavone]
IC50 (mushroom tyrosinase [1]; [9]): 237 µM

O=c1c(O)c(-c2ccc(O)cc2)oc2cc(O)cc(O)c12 [kaempferol]
effect on melanogenesis (in words) [6]: melanogenesis-promoting actions

O=c1cc(-c2ccc(O)c(O)c2)oc2cc(O)cc(O)c12 [luteolin]
effect on melanogenesis (in words) [6]: melanogenesis-promoting actions

O=C1C[C@@H](c2ccc(O)cc2)Oc2cc(O)cc(O)c21 [naringenin]
effect on melanogenesis (in words) [8]: stimulate melanogenesis

O=c1c(O)c(-c2ccc(O)c(O)c2)oc2cc(O)cc(O)c12 [quercetin]
effect on melanogenesis (in words) [8]: stimulate melanogenesis | effect on melanogenesis (in words) [6]: melanogenesis-promoting actions

COc1cc(O)c2c(=O)c(O)c(-c3ccc(O)c(O)c3)oc2c1 [rhamnetin]
effect on melanogenesis (in words) [6]: melanogenesis-promoting actions

Alpinetin [Compound 26]
Mushroom Tyrosinase Inhibition % Inhibition (at 200 μM) (mushroom tyrosinase [2]; 200 μM, L-DOPA substrate): 36.9 ± 0.5% | IC50 (mushroom tyrosinase [2]; L-DOPA substrate, read-out: Mushroom Tyrosinase Inhibition IC50): 450 ± 48.5 µM | Murine Tyrosinase Inhibition, % (at 200 μM), symbol (murine tyrosinase): - (no inhibition at 200 μM) | % Melanin Content (B16-F10 melanoma cells [3]; 15 μM): 89.7 ± 0.4% | % Melanin Content (B16-F10 melanoma cells [3]; 30 μM): 92.3 ± 1.6% | % Cell Viability (B16-F10 melanoma cells [7]; 15 μM): 77.0 ± 12.7% | % Cell Viability (B16-F10 melanoma cells [7]; 30 μM): 77.1 ± 10.2%
